Drawing on ChEMBL document CHEMBL5291721, “A preclinical secondary pharmacology resource illuminates target-adverse drug reaction associations of marketed drugs” (Nat Commun, 2023), this text covers AC50 for twelve compounds.

Assay [1] concerns the target T1, Muscarinic acetylcholine receptor M2 (Homo sapiens, UniProt P08172).
T1 sequence (P08172 whole entry): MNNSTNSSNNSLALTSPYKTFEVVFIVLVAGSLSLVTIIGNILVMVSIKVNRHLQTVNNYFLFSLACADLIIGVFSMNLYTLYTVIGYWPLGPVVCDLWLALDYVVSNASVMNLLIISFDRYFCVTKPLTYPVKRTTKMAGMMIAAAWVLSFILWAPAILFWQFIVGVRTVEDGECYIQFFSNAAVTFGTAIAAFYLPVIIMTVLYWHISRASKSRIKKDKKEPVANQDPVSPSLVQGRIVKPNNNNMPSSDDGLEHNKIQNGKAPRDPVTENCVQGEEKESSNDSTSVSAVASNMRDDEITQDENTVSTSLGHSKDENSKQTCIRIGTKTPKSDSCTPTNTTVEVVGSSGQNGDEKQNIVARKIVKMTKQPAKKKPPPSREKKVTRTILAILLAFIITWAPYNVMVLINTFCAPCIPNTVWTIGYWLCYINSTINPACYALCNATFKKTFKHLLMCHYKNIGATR
The format is functional, cell-based.

A further assay has as its target Cannabinoid receptor 1 (Homo sapiens, UniProt P21554). It is filed as functional, cell-based.
Assay [2] concerns the target T2, Thromboxane A2 receptor (Homo sapiens, UniProt P21731).
T2 sequence (P21731 whole entry): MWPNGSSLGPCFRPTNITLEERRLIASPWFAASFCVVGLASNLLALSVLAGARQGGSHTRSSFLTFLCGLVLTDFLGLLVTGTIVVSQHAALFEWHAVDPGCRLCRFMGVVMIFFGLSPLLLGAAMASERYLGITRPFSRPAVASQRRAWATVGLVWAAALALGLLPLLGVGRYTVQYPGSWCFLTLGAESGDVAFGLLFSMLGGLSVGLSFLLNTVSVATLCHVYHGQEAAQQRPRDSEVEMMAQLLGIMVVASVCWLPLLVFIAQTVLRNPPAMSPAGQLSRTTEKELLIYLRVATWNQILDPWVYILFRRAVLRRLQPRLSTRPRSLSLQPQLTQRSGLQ

Assay [3] addresses T3, 5-hydroxytryptamine receptor 1A (Homo sapiens, UniProt P08908).
T3 sequence (P08908 whole entry): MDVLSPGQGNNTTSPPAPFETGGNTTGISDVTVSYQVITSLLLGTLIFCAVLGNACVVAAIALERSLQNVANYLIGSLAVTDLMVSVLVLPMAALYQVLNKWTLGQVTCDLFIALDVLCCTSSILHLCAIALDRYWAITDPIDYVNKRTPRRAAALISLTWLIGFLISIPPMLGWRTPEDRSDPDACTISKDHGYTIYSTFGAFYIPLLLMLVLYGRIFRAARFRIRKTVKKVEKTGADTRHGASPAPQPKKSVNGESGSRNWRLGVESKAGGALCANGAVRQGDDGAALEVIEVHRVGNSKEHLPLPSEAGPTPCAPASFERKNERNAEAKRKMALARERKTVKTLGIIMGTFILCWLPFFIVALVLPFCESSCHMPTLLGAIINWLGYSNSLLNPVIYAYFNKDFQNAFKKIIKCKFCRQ
The format is functional, cell-based.

Assay [4] concerns the target Muscarinic acetylcholine receptor M3 (Homo sapiens, UniProt P20309).
Assay [5] concerns the target Gamma-aminobutyric acid receptor subunit alpha-1 (Rattus norvegicus, UniProt P62813).
In assay [6] the target is T4, Alpha-1A adrenergic receptor (Homo sapiens, UniProt P35348).
T4 sequence (P35348 whole entry): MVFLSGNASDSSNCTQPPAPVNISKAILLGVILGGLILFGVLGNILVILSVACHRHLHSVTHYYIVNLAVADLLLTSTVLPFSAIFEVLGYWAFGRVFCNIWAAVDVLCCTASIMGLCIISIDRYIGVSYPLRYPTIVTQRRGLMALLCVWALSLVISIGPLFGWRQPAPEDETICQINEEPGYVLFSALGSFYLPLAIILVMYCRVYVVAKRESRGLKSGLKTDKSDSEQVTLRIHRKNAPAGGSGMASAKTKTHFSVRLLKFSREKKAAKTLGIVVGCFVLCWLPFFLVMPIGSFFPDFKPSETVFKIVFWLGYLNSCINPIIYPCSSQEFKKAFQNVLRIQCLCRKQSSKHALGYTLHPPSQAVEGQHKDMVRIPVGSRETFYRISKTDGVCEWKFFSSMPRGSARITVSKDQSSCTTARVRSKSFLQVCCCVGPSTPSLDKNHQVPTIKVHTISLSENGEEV
It is filed as functional, cell-based.

Assay [7] deals with T4, Alpha-1A adrenergic receptor. It is filed as functional, cell-based. This is another data set of the same source.
Assay [8] deals with Beta-2 adrenergic receptor (Homo sapiens, UniProt P07550). The format is functional, cell-based.
In assay [9] the target is T5, Alpha-2B adrenergic receptor (Homo sapiens, UniProt P18089).
T5 sequence (P18089 whole entry): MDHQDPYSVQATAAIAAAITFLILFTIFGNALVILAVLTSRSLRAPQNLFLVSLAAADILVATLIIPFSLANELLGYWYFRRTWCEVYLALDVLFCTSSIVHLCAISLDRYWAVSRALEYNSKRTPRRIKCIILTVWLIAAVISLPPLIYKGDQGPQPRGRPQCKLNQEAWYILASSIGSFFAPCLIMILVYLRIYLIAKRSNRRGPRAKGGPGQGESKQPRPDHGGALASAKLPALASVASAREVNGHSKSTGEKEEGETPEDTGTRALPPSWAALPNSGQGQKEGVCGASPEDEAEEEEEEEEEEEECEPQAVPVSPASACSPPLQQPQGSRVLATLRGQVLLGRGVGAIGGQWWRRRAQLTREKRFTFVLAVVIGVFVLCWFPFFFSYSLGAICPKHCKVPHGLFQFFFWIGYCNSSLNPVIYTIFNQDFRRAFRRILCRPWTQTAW

The next assay concerns the target T6, Adenosine receptor A3 (Homo sapiens, UniProt P0DMS8).
T6 sequence (P0DMS8 whole entry): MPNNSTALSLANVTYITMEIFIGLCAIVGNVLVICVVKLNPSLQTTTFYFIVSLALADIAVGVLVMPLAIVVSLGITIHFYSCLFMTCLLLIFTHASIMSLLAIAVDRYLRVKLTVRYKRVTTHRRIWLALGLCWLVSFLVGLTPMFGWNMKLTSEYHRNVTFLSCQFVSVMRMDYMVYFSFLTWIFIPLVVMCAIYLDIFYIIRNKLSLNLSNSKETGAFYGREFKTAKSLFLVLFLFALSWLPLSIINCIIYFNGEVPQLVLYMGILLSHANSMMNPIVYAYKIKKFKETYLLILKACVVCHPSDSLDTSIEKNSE

Another assay concerns the target Acetylcholinesterase (Homo sapiens, UniProt P22303). It is filed as functional.
Assay [10] addresses T2, Thromboxane A2 receptor. The format is functional, cell-based.

A word on the AC50: it is the concentration giving half of the maximal activity seen. Low values mean greater potency, high ones weaker potency.
Further: assay procedure not described here.

Sequence of Acetylcholinesterase (P22303 whole entry): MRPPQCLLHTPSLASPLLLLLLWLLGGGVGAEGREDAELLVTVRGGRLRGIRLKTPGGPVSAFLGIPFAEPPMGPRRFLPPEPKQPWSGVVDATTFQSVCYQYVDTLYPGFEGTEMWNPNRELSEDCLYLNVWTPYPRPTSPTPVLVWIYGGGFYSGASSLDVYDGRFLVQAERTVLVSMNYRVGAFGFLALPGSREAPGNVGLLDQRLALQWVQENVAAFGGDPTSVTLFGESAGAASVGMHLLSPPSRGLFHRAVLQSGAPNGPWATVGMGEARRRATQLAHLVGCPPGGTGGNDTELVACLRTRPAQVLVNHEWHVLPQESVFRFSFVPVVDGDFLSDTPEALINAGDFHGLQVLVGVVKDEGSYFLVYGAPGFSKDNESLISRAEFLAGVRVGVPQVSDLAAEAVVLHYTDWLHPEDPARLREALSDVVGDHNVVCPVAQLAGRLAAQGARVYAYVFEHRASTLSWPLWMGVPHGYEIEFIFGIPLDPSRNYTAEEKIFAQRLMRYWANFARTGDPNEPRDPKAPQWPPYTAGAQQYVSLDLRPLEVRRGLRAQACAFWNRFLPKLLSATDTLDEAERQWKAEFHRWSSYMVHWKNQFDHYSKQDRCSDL
Sequence of Gamma-aminobutyric acid receptor subunit alpha-1 (P62813 whole entry): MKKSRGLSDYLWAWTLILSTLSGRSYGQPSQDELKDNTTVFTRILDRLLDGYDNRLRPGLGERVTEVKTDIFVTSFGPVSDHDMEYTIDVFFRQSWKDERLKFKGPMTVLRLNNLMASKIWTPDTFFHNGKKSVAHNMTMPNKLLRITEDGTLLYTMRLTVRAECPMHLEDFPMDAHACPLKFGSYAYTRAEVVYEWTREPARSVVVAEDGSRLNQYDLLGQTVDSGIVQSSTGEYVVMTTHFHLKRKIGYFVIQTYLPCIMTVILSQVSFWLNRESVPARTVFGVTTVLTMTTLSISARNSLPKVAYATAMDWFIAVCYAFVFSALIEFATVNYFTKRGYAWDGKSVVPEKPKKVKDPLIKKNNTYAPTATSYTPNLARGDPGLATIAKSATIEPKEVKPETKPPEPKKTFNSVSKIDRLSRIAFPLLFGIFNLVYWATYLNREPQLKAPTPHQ
Sequence of Beta-2 adrenergic receptor (P07550 whole entry): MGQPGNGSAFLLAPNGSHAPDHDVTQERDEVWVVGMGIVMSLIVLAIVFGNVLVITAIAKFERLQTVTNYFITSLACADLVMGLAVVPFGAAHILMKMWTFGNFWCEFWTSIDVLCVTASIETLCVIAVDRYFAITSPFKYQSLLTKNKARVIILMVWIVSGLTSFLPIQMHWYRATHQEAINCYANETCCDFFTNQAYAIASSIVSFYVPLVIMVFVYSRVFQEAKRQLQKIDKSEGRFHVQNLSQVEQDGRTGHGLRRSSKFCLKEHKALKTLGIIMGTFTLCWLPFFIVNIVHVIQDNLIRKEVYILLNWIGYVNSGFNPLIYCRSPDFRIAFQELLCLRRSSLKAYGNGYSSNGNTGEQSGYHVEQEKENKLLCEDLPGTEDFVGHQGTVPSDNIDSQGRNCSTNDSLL
Sequence of Muscarinic acetylcholine receptor M3 (P20309 whole entry): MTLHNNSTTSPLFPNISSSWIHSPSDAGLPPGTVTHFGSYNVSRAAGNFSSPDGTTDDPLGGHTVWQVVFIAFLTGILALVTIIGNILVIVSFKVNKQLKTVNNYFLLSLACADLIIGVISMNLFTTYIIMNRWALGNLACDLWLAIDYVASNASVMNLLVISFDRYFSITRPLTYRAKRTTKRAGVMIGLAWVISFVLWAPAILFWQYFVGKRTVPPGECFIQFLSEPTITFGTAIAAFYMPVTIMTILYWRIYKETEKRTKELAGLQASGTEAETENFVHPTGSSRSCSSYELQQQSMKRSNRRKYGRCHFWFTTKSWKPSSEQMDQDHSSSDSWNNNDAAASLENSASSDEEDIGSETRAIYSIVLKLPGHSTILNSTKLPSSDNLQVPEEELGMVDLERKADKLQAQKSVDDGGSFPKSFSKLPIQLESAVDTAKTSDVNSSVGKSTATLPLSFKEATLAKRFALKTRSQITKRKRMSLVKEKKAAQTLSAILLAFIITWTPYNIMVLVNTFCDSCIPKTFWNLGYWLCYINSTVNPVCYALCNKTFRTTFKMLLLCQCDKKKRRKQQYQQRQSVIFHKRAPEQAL
Sequence of Cannabinoid receptor 1 (P21554 whole entry): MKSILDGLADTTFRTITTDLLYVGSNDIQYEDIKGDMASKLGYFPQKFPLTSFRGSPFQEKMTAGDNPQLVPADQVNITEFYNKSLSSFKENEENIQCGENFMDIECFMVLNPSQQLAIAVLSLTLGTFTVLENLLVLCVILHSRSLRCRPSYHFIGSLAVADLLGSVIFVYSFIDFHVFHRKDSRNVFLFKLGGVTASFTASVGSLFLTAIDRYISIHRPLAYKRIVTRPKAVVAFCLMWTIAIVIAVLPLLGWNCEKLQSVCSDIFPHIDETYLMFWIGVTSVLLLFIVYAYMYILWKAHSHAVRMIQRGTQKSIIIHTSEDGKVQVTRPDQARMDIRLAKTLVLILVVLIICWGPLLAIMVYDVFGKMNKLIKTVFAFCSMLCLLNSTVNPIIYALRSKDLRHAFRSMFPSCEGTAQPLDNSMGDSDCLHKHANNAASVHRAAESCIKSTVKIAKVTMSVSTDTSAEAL

Regarding `C=CC1=C(C(=O)O)N2C(=O)[C@@H](NC(=O)/C(=N\O)c3csc(N)n3)[C@H]2SC1`, the half-maximal activity concentration (AC50) in [1] was more than 10 µM; on Cannabinoid receptor 1, more than 30 µM; at Thromboxane A2 receptor [2], more than 30 µM; in assay [3], more than 10 µM; in [4], more than 30 µM; in assay [5], more than 10 µM. Further, the AC50 is more than 30 µM in assay [6], more than 30 µM in [7], more than 30 µM in assay [8] and more than 10 µM in assay [9].
Take `CCN(CC)CCn1c(=O)c(Cc2ccc(OC)cc2)nc2ccccc21` [CAROVERINE]: the half-maximal activity concentration (AC50) (in assay [1]; on Cannabinoid receptor 1; at Thromboxane A2 receptor [2]; in [3]; in assay [4]; in assay [5]) was more than 30 µM in each case. In addition, the concentration at half-maximal activity (AC50) was more than 30 µM in assay [6], more than 30 µM in assay [7], more than 30 µM in assay [8] and 21 µM in [9].
In the case of `C[C@]12CCC(=O)C=C1CC[C@H]1[C@@H]3CC[C@](O)(C(=O)CO)[C@@]3(C)C[C@H](O)[C@@]12F` [FLUDROCORTISONE], the AC50 in assay [1] is more than 30 µM; on Cannabinoid receptor 1, more than 30 µM; at Thromboxane A2 receptor [2] it was more than 30 µM; in assay [3] it was more than 10 µM; in assay [4] it was more than 30 µM; in assay [5], more than 10 µM. Moreover, the concentration at half-maximal activity (AC50) in assay [6] was more than 30 µM; in assay [7], more than 30 µM; in assay [8], more than 30 µM; in [9], more than 10 µM.
On to `Cc1c(C)c2c(c(C)c1O)CCC(C)(COc1ccc(CC3SC(=O)NC3=O)cc1)O2` (stereo not given) [TROGLITAZONE], for which the half-maximal activity concentration (AC50) was more than 30 µM at Cannabinoid receptor 1; more than 30 µM on Thromboxane A2 receptor [2]; 6.9 µM in assay [3]; 3.29 µM at Adenosine receptor A3; more than 30 µM in assay [5]; more than 30 µM in assay [6]. Further, the AC50 (on Acetylcholinesterase; in assay [7]; in [8]) was more than 30 µM each time.
Turning to `C[C@H](Nc1ncnc2[nH]cnc12)c1cc2cccc(Cl)c2c(=O)n1-c1ccccc1` [DUVELISIB], the AC50 in [1] is more than 30 µM; at Cannabinoid receptor 1 it was more than 30 µM; in assay [3], more than 30 µM; in [4] it was more than 30 µM; at Thromboxane A2 receptor [10] it was 15.1 µM; in assay [6] it was more than 30 µM. Besides, the AC50 (at Acetylcholinesterase; in assay [7]; in assay [8]; in assay [9]) was more than 30 µM each time.
In the case of `C#CCN(C)Cc1ccccc1` [PARGYLINE], the AC50 (in assay [1]; on Cannabinoid receptor 1; in [4]; at Thromboxane A2 receptor [10]; in assay [5]; in assay [6]) was more than 30 µM in each case. The concentration at half-maximal activity (AC50) (at Acetylcholinesterase; in [7]; in assay [8]; in assay [9]) was more than 30 µM each time.
As for `O=C(Cc1cccs1)N[C@@H]1C(=O)N2C(C(=O)[O-])=C(C[n+]3ccccc3)CS[C@H]12` [CEPHALORIDINE], the half-maximal activity concentration (AC50) (in assay [1]; on Cannabinoid receptor 1; in assay [3]; in [4]; at Thromboxane A2 receptor [10]; in [5]) was more than 30 µM each time. Further, the AC50 (in assay [6]; on Acetylcholinesterase; in assay [7]; in assay [8]; in assay [9]) was more than 30 µM in each case.
In the case of `OCCOCCN1CCN(C(c2ccccc2)c2ccc(Cl)cc2)CC1` (stereo not given) [HYDROXYZINE], the AC50 was more than 10 µM in assay [1]; more than 30 µM at Cannabinoid receptor 1; more than 30 µM at Thromboxane A2 receptor [2]; more than 10 µM in assay [3]; more than 10 µM in assay [4]; more than 10 µM in assay [5]. The half-maximal activity concentration (AC50) in assay [6] is more than 30 µM; in [7], 9.67 µM; in assay [8] it was more than 30 µM; in assay [9], 8 µM.
Consider `CC(=O)NC[C@H]1CN(c2ccc(N3CCOCC3)c(F)c2)C(=O)O1` [LINEZOLID], for which the AC50 (on Cannabinoid receptor 1; at Thromboxane A2 receptor [2]; in [3]; in [4]; in assay [5]; in assay [6]) was more than 30 µM in each case. For the same compound, the half-maximal activity concentration (AC50) in assay [7], in assay [8] and in assay [9] was more than 30 µM throughout.
Consider `CC(C)/N=c1\cc2n(-c3ccc(Cl)cc3)c3ccccc3nc-2cc1Nc1ccc(Cl)cc1` [CLOFAZIMINE], for which the concentration at half-maximal activity (AC50) in [1] is more than 30 µM; on Cannabinoid receptor 1, more than 30 µM; on Thromboxane A2 receptor [2], more than 30 µM; in assay [3], more than 30 µM; in assay [4], more than 30 µM; in [5] it was 29 µM. Besides, the concentration at half-maximal activity (AC50) in assay [6], in assay [7], in [8] and in [9] was more than 30 µM in each case.
Regarding `CCC[C@@]1(CCc2ccccc2)CC(O)=C([C@H](CC)c2cccc(NS(=O)(=O)c3ccc(C(F)(F)F)cn3)c2)C(=O)O1`, the AC50 in [1] was 6.3 µM; at Cannabinoid receptor 1 it was more than 30 µM; in assay [3] it was more than 30 µM; in assay [4] it was more than 30 µM; in assay [6], more than 30 µM; in assay [7], 4.7 µM. Also, the AC50 in assay [8] and in [9] was more than 30 µM in each case.
With `C[C@H](CCC(=O)O)[C@H]1CC[C@H]2[C@@H]3[C@H](O)C[C@@H]4C[C@H](O)CC[C@]4(C)[C@H]3CC[C@]12C` [CHENODIOL], the AC50 in [1] was 27 µM; on Cannabinoid receptor 1, more than 30 µM; in [3], more than 30 µM; in assay [4], more than 30 µM; in assay [6], more than 30 µM; in assay [7], 19 µM. Besides, the concentration at half-maximal activity (AC50) in [8] and in assay [9] was more than 30 µM in each case.
